Measured values: US8633212B2, “Inhibitors of beta-secretase” (Vitae Pharmaceuticals, Inc., priority 2009, dated 2014)
Like-named read-outs stand apart in the source and are kept apart here.

Assays:
[1] = target: truncated human beta-secretase (residues 1-458, His6-tagged at the C-terminus) (Homo sapiens (Human), UniProt P56817); assay: BACE enzyme assay (fluorescence quench assay, Example 434A); type: biochemical; conditions: read-out: IC50
[2] = target: H4 neuroglioma cell line stably expressing APP with the KM-NL Swedish mutation (H4-APPsw); soluble Amyloid Beta 1-40 (Aβ 1-40) (Homo sapiens (Human), UniProt P56817); assay: BACE cell assay: soluble Aβ 1-40 in culture media of H4-APPsw cells (AlphaLISA/ELISA); type: cell-based; conditions: in vitro cell activity; H4-APPsw cells treated overnight, secreted Aβ 1-40 in culture media
Chain of H4 neuroglioma cell line stably expressing APP with the KM-NL Swedish mutation (H4-APPsw); soluble Amyloid Beta 1-40 (Aβ 1-40) (P56817 46-501 limits assumed, change not shown): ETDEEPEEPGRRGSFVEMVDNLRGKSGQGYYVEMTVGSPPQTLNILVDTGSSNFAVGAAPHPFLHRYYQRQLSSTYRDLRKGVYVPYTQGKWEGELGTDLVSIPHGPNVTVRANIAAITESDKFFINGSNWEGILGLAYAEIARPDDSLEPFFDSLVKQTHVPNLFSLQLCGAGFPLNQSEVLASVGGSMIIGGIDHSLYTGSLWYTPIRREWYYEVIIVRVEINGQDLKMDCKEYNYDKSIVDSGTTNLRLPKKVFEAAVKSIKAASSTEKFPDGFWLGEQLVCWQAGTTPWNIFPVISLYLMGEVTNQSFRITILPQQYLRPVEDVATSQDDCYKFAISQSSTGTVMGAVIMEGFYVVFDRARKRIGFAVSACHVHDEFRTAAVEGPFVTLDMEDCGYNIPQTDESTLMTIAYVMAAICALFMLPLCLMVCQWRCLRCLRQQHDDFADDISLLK
Description: H4 neuroglioma cell line that stably expresses Amyloid Precursor Protein (APP) containing the KM-NL Swedish mutation (H4-APPsw) was generated. For the assay, cells are treated overnight in the presence of inhibitor and the culture media are subjected to ELISA analysis of soluble Amyloid Beta 1-40 (Aβ 1-40).
Generation and Maintenance of H4-APPsw Cell Line
H4 neuroglioma cell line was cultured in DMEM with 10% FBS and 1% penicillin/streptomycin (Culture Medium) at 37° C., 5% CO2. […] 24 hrs after transfection, the cells were replaced into three new plates (150 mm) in fresh Culture Medium with 250 ug/mL Zeocin. […] The levels of APPsw expression were analyzed by immunoblotting and the production of Aβ 1-40 was detected by ELISA of culture supernatants. The selected clones are maintained in Culture Medium with 250 μg/mL Zeocin and routinely split in 3-4 days to maintain 20-80% confluence.
Final Assay Conditions (96-Well Plate)
Split H4-APPsw cells in Culture Medium and culture overnight such that cells will be ˜80% confluent next morning.
Create Compound Dilution Plate.
After determining the desired final concentration of compound to be tested, create a 500× dilution plate. Add DMSO, but not inhibitor, to each well of Column 1. […] Add compounds of interest at 500× desired final concentration to wells A3-A10. […] Dilute contents of Row A 1:3 in Row B, then continue through Rows C-H.
Add 4 μL 5 mM control compound to Media Plate wells A1-D1 for determination of full inhibition.
With a multichannel pipettor, mix each well of Media Plate several times to insure homogeneity. […] Next, place Medium Plate and Cell Plate in the incubator.
Trypsinize and count H4-APPsw cells. Dilute cells 6×10^5 cells/mL in Culture Medium and remove Cell Plate from incubator. Vortex cells to homogeneity, then using a multichannel repeating pipettor, add 100 μL cell suspension to Cell Plate, adding cells from Row H to Row A. Place Cell Plate in incubator.
Change media in Cell Plate.
After 5 h, check Cell Plate by microscope to insure cells are attached. In culture hood, remove media from Cell Plate using multichannel repeating pipettor. Add 100 μl Culture Medium to each well. Remove Media Plate from incubator and mix with pipettor as previous. Add 100 μl from each well of Media Plate to corresponding well in Cell Plate. Place Cell Plate in incubator overnight.
Perform ELISA to determine levels of secreted Aβ 1-40.
After 16 h incubation, spin Cell Plate for 8 min at 1200 rpm. The primary reading of Aβ 1-40 levels is done using PerkinElmer AlphaLISA technology. Follow the manufacturer's protocol for performing AlphaLISA in a white ½ area Optiwell plate using Row 12 for peptide standard (1:2 dilutions, starting at 15 ng/ml). Data are acquired using PerkinElmer Fusion-Alpha FP-HT, Alpha protocol (Count Time 0.6s, Count Time Ratio 30%:70%).
Export data from Fusion using Columnar Report format into a separate file for each plate. Upload data into Activity Base using RIA-DOSE-RESPONSE protocol (Version 1). Data from at least eight doses were fitted to a four parameter logistical model using XLfit software to determine potency.

[3] = footnote a: protocols described in Example 434A

Chain of truncated human beta-secretase (residues 1-458, His6-tagged at the C-terminus) (P56817 22-458): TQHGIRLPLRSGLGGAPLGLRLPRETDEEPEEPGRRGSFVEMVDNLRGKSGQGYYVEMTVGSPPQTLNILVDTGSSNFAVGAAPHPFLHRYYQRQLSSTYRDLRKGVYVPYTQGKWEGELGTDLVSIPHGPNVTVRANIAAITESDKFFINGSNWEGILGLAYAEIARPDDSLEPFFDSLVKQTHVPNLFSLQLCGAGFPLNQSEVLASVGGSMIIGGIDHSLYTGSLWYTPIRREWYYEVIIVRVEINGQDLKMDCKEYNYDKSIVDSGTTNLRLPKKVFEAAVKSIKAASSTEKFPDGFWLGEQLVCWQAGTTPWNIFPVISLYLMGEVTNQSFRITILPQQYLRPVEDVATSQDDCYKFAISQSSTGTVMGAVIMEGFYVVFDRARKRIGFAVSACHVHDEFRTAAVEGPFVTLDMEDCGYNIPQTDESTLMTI

SMILES | IC50 [1, 3] [µM] | IC50 [2] [µM] | IC50 [1] [µM]
CN1OC2(N=C1N)c1cc(-c3cccc(C#N)c3)ccc1CC21C=CC(c2ccccc2)C1 (stereo not shown) [Compound 47] | 0.295 | < 10 | –
COC1CCC2(CC1)Cc1ccc(C#CC3CC3)cc1C21N=C(N)N(C)O1 (stereo not shown) [Compound 3] | 0.0045 | < 0.1 | –
CN1OC2(N=C1N)c1cc(-c3cccc(C(F)(F)F)c3)ccc1CC21CCc2ccccc2CC1 (stereo not shown) [Compound 39] | – | < 10 | 0.158
CN1OC2(N=C1N)c1cc(-c3cccc(C#N)c3)ccc1CC21CCCC1 (stereo not shown) [Compound 50] | 0.443 | < 1 | –
COC1CCC2(CC1)Cc1ccc(-c3cc(F)cc(Cl)c3)cc1C21CC(=O)N(C)C(N)=N1 (stereo not drawn) [Compound 42, 2″-amino-1′″-methyl-6-(3-chloro-5-fluorophenyl)-1″H-spiro[spiro[2,3-dihydro-indene-2,1′-(trans-4-methoxycyclohexane)]-1,4′-pyrimidin]-6″(5″H)-one] | – | < 0.1 | 0.173
CN1OC2(N=C1N)c1cc(Cl)ccc1CC21CCc2ccccc2CC1 (stereo not shown) [Compound 30] | 0.0616 | < 5 | –
COC1CCC2(CC1)Cc1ccc(-c3cccc(C(F)(F)F)c3)cc1C21N=C(N)N(C)O1 (stereo not shown) [Compound 20] | 0.0187 | < 0.5 | –
CN1OC2(N=C1N)c1cc(-c3cccc(C#N)c3)ccc1CC21Cc2ccccc2C1 (stereo not shown) [Compound 40] | 0.16 | < 5 | –
COC1CCC2(CC1)Cc1ccc(-c3cc(C)cc(C)c3)cc1C21N=C(N)N(C)O1 (stereo not shown) [Compound 19] | 0.0146 | < 0.5 | –
CN1OC2(N=C1N)c1cc(-c3cccc(C#N)c3)ccc1CC21CC=C(F)CC1 (stereo not shown) [Compound 34] | 0.0933 | < 1 | –
CN1OC2(N=C1N)c1cc(-c3cccc(C#N)c3)ccc1CC21CCc2c(F)cccc2C1 (stereo not shown) [Compound 54] | 0.618 | < 5 | –
COC1CCC2(CC1)Cc1ccc(-c3cc(F)cc(Cl)c3)cc1C21N=C(N)N(C)O1 (stereo not shown) [Compound 1] | 0.0026 | < 0.1 | –
CCO[C@H]1CC[C@]2(CC1)Cc1ccc(-c3cccc(C#N)c3)cc1C21N=C(N)N(C)O1 (stereo partly shown) [Compound 28] | – | < 0.5 | 0.0417
CC1=C(C)CC2(CC1)Cc1ccc(-c3cccc(C#N)c3)cc1C21N=C(N)N(C)O1 (stereo not shown) [Compound 41] | 0.161 | < 5 | –
COC1CCC2(CC1)Cc1ccc(-c3cccc(C#N)c3)cc1C21N=C(N)N(C)O1 (stereo not shown) [Compound 25] | 0.0262 | < 0.1 | –
CN1OC2(N=C1N)c1cc(-c3cccc(C#N)c3)ccc1CC21CCC(F)(F)CC1 (stereo not shown) [Compound 44] | 0.189 | < 5 | –
CN1OC2(N=C1N)c1cc(-c3cccc(C#N)c3)ccc1CC21CCCc2ccccc2C1 (stereo not shown) [Compound 46] | 0.293 | < 10 | –
